Measured values published in patent US20050026911A1, “Benzotriazapinone salts and methods for using same” (priority 2003, published 2005).

Target: T1, gastrin (CCK2) receptors (Rattus norvegicus, UniProt P30553)
T1 construct: The stomach was excised and flushed with ca. 1 ml of unbuffered physiological saline solution; from tissue; host or cells: isolated whole stomach of immature rats (ca. 21 days old)
T1 sequence (P30553 1-452): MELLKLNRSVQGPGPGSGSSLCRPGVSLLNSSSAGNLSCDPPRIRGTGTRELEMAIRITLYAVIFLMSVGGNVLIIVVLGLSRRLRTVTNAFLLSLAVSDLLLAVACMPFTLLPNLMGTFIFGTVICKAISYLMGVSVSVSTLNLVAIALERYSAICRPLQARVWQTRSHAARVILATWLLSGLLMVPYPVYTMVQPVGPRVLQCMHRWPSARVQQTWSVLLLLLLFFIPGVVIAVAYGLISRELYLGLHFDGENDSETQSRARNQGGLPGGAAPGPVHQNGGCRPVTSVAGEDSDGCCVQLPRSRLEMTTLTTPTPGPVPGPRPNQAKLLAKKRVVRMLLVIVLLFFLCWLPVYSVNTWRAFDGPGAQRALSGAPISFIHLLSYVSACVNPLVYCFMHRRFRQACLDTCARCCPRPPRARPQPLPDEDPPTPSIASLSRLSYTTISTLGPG
Assay: gastrin (CCK2) antagonist activity in an immature rat stomach assay
Conditions: pentagastrin dose-response curves, acid secretion, read-out: pKB rat stomach (converted)
Method in brief: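 Pentagastrin dose-response curves were run cumulatively 60 min after drug went into the serosal bath, itself after 120 min stabilisation. Preparation: perfused stomach from rats ca. 21 days old (33-50 g), with unbuffered saline under 100% O2 at 1 ml min^−1 and perfusate pH monitored.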

| Kb | SMILES |
| --- | --- |
| 7.76 nM | CC(C)(C)C(=O)CN1C(=O)N(CC(=O)Nc2cccc(-c3ccc(C(=O)O)s3)c2)N=C(C2CCCCC2)c2ccccc21 [Example 157, 5-(3-{2-[5-Cyclohexyl-1-(3,3-dimethyl-2-oxo-butyl)-2-oxo-1,2-dihydro-3H-1,3,4-benzotriazepin-3-yl]-acetylamino}-phenyl)-thiophene-2-carboxylic acid] |
| 40.7 nM | Cc1cc(NC(=O)CN2N=C(C3CCCCC3)c3ccccc3N(CC(=O)C(C)(C)C)C2=O)cc(C(=O)O)c1 [Example 91, 3-{2-[5-Cyclohexyl-1-(3,3-dimethyl-2-oxo-butyl)-2-oxo-1,2-dihydro-3H-1,3,4-benzotriazepin-3-yl]-acetylamino}-5-methyl-benzoic acid] |
| 132 nM | CNc1cccc(NC(=O)CN2N=C(c3ccccc3)c3ccccc3N(CC(=O)C(C)(C)C)C2=O)c1 [Example 4, 2-[1-(3,3-Dimethyl-2-oxo-butyl)-2-oxo-5-phenyl-1,2-dihydro-3H-1,3,4-benzotriazepin-3-yl]-N-(3-methylamino-phenyl)-acetamide] |
| 3.47 nM | CC(C)(C)C(=O)CN1C(=O)N(CC(=O)Nc2cccc(/C=C/C(=O)O)c2)N=C(C2CCCCC2)c2ccccc21 [Example 60, 3-(3-{2-[5-Cyclohexyl-1-(3,3-dimethyl-2-oxo-butyl)-2-oxo-1,2-dihydro-3H-1,3,4-benzotriazepin-3-yl]-acetylamino}-phenyl)-acrylic acid] |
| 3.39 nM | CC(C)(C)C(=O)CN1C(=O)N(CC(=O)Nc2cccc(SCc3nn[nH]n3)c2)N=C(C2CCCCC2)c2ccccc21 [Example 86, 2-[5-Cyclohexyl-1-(3,3-dimethyl-2-oxo-butyl)-2-oxo-1,2-dihydro-3H-1,3,4-benzotriazepin-3-yl]-N-[3-(4H-tetrazol-5-ylmethylsutfanyl)-phenyl]-acetamide] |
| 263 nM | CNc1cccc(NC(=O)NCN2N=C(c3ccccn3)c3ccccc3N(CC(=O)C(C)(C)C)C2=O)c1 [Example 8, 1-[1-(3,3-Dimethyl-2-oxo-butyl)-2-oxo-5-pyridin-2-yl-1,2-dihydro-3H-1,3,4-benzotriazepin-3-ylmethyl]-3-(3-methylamino-phenyl)-urea] |
| 50.1 nM | CNc1cccc(NC(=O)CN2N=C(c3ccccn3)c3ccccc3N(CC(=O)c3ccccc3C)C2=O)c1 [Example 7, N-(3-Methylamino-phenyl)-2-[2-oxo-1-(2-oxo-2-o-tolyl-ethyl)-5-pyridin-2-yl-1,2-dihydro-3H-1,3,4-benzotriazepin-3-yl]-acetamide] |
| 129 nM | CC(C)(C)C(=O)CN1C(=O)N(CC(=O)Nc2cccc(CO)n2)N=C(C2CCCCC2)c2ccccc21 [Example 106, 2-[5-Cyclohexyl-1-(3,3-dimethyl-2-oxo-butyl)-2-oxo-1,2-dihydro-3H-1,3,4-benzotriazepin-3-yl]-N-(6-hydroxymethyl-pyridin-2-yl)-acetamide] |
| 44.7 nM | CNc1cc(NC)cc(NC(=O)CN2N=C(C3CCCCC3)c3ccccc3N(CC(=O)C(C)(C)C)C2=O)c1 [Example 104, N-(3,5-Bis-methylamino-phenyl)-2-[5-cyclohexyl-1-(3,3-dimethyl-2-oxo-butyl)-2-oxo-1,2-dihydro-3H-1,3,4-benzotriazepin-3-yl]-acetamide] |
| 1050 nM | CNc1cccc(NC(=O)CN2N=C(c3ccccn3)c3ccccc3N(CC(=O)N3CCCC3)C2=O)c1 [Example 6] |
| 7.08 nM | CC(C)(C)C(=O)CN1C(=O)N(CC(=O)Nc2cccc(-c3ccc(C(=O)O)cc3)c2)N=C(C2CCCCC2)c2ccccc21 [Example 146, 3′-{2-[5-Cyclohexyl-1-(3,3-dimethyl-2-oxo-butyl)-2-oxo-1,2-dihydro-3H-1,3,4-benzotriazepin-3-yl]-acetylamino}-biphenyl-4-carboxylic acid] |
| 117 nM | CNCCN(C)c1cccc(NC(=O)CN2N=C(C3CCCCC3)c3ccccc3N(CC(=O)C(C)(C)C)C2=O)c1 [Example 143, 2-[5-Cyclohexyl-1-(3,3-dimethyl-2-oxo-butyl)-2-oxo-1,2-dihydro-3H-1,3,4-benzotriazepin-3-yl]-N-{3-[methyl-(2-methylamino-ethyl)-amino]-phenyl}-acetamide] |
| 4.47 nM | CC(C)(C)C(=O)CN1C(=O)N(CC(=O)Nc2cccc(CCC(=O)O)c2)N=C(C2CCCCC2)c2ccccc21 [Example 61, 3-(3-{2-[5-Cyclohexyl-1-(3,3-dimethyl-2-oxo-butyl)-2-oxo-1,2-dihydro-3H-1,3,4-benzotriazepin-3-yl]-acetylamino}-phenyl)-propionic acid] |
| 77.6 nM | COc1ccc(NC(=O)CN2N=C(C3CCCCC3)c3ccccc3N(CC(=O)C(C)(C)C)C2=O)cc1 [Example 32, 2-[5-Cyclohexyl-1-(3,3-dimethyl-2-oxo-butyl)-2-oxo-1,2-dihydro-3H-1,3,4-benzotriazepin-3-yl]-N-(4-methoxy-phenyl)-acetamide] |
| 22.9 nM | CC(C)(C)C(=O)CN1C(=O)N(CC(=O)Nc2cccc(C(=O)NS(C)(=O)=O)c2)N=C(C2CCCCC2)c2ccccc21 [Example 40] |
| 42.7 nM | CC(C)CCN1C(=O)N(CC(=O)Nc2cccc(C(=O)O)c2)N=C(C2CCCCC2)c2ccccc21 [Example 16, 3-{2-[5-Cyclohexyl-1-(3-methyl-butyl)-2-oxo-1,2-dihydro-3H-1,3,4-benzotriazepin-3-yl]-acetylamino}-benzoic acid] |
| 0.575 nM | O=C(O)CSc1cccc(NC(=O)CN2N=C(C3CCCCC3)c3ccccc3N(CC(=O)C3CCCCC3)C2=O)c1 [Example 100, (3-{2-[5-Cyclohexyl-1-(2-cyclohexyl-2-oxo-ethyl)-2-oxo-1,2-dihydro-3H-1,3,4-benzotriazepin-3-yl]-acetylamino}-phenylsulfanyl)-acetic acid] |
| 1.17 nM | CNc1cccc(NC(=O)CN2N=C(C3CCCCC3)c3ccccc3N(CC(=O)C3CCCC3)C2=O)c1 [Example 57, 2-[5-Cyclohexyl-1-(2-cyclopentyl-2-oxo-ethyl)-2-oxo-1,2-dihydro-3H-1,3,4-benzotriazepin-3-yl]-N-(3-methylaminophenyl)-acetamide] |
| 3.39 nM | O=C(O)Cc1cccc(NC(=O)CN2N=C(C3CCCCC3)c3ccccc3N(CC(=O)C3CCCCC3)C2=O)c1 [Example 80, (3-{2-[5-Cyclohexyl-1-(2-cyclohexyl-2-oxo-ethyl)-2-oxo-1,2-dihydro-3H-1,3,4-benzotriazepin-3-yl]-acetylamino}-phenyl)-acetic acid] |
| 3.31 nM | Cc1nc(-c2cccc(NC(=O)CN3N=C(C4CCCCC4)c4ccccc4N(CC(=O)C(C)(C)C)C3=O)c2)cs1 [Example 107] |
| 24.5 nM | O=C(O)Cc1cccc(NC(=O)CN2N=C(C3CCCCC3)c3ccccc3N(CC(=O)C3CC3)C2=O)c1 [Example 119] |
| 7.24 nM | CN(CC(=O)O)c1cccc(NC(=O)CN2N=C(C3CCCCC3)c3ccccc3N(CC(=O)C(C)(C)C)C2=O)c1 [Example 96, [(3-{2-[5-Cyclohexyl-1-(3,3-dimethyl-2-oxo-butyl)-2-oxo-1,2-dihydro-3H-1,3,4-benzotriazepin-3-yl]-acetylamino}-phenyl)-methyl-amino]-acetic acid] |
| 14.1 nM | CC(C)(C)C(=O)CN1C(=O)N(CC(=O)Nc2ccc3cnn(CC(=O)O)c3c2)N=C(C2CCCCC2)c2ccccc21 [Example 99, (6-{2-[5-Cyclohexyl-1-(3,3-dimethyl-2-oxo-butyl)-2-oxo-1,2-dihydro-3H-1,3,4-benzotriazepin-3-yl]-acetylamino}-indazol-1-yl)-acetic acid] |
| 37.2 nM | CC(C)(C)C(=O)CN1C(=O)N(CC(=O)Nc2cccc(-c3csc(C(=O)O)n3)c2)N=C(C2CCCCC2)c2ccccc21 [Example 108, 4-(3-{2-[5-Cyclohexyl-1-(3,3-dimethyl-2-oxo-butyl)-2-oxo-1,2-dihydro-3H-1,3,4-benzotriazepin-3-yl]-acetylamino}-phenyl)-thiazole-2-carboxylic acid] |
| 174 nM | Cc1cccc(NNC(=O)CN2N=C(C3CCCCC3)c3ccccc3N(CC(=O)C(C)(C)C)C2=O)c1 [Example 46, [5-Cyclohexyl-1-(3,3-dimethyl-2-oxo-butyl)-2-oxo-1,2-dihydro-3H-1,3,4-benzotriazepin-3-yl]-acetic acid N′-m-tolyl-hydrazide] |
| 2.14 nM | CN(c1cccc(NC(=O)CN2N=C(C3CCCCC3)c3ccccc3N(CC(=O)C3CCCC3)C2=O)c1)c1nnn[nH]1 [Example 124, 2-[5-Cyclohexyl-1-(2-cyclopentyl-2-oxo-ethyl)-2-oxo-1,2-dihydro-3H-1,3,4-benzotriazepin-3-yl]-N-(3-[methyl-(2H-tetrazol-5-yl)-amino]-phenyl)-acetamide] |
| 2.51 nM | O=C(CN1N=C(C2CCCCC2)c2ccccc2N(CC(=O)C2CCCCC2)C1=O)Nc1cccc(C(=O)O)c1 [Example 79, 3-{2-[5-Cyclohexyl-1-(2-cyclohexyl-2-oxo-ethyl)-2-oxo-1,2-dihydro-3H-1,3,4-benzotriazepin-3-yl]-acetylamino}-benzoic acid] |
| 37.2 nM | O=C(O)CSc1cccc(NC(=O)CN2N=C(C3CCCCC3)c3ccccc3N(CC(=O)C3CC3)C2=O)c1 [Example 120, [3-(2-{5-Cyclohexyl-1-(2-cyclopropyl-2-oxo-ethyl)-2-oxo-1,2-dihydro-3H-1,3,4-benzotriazepin-3-yl]-acetylamino}-phenylsulfanyl)-acetic acid] |
